In brackets after ≈: the same amount, converted by molar mass.
Each molecule was assayed on Staphylococcus aureus (assay: Antibacterial activity against Staphylococcus aureus KCTC 4220 after 24 hrs by two-fold serial dilution method). Conditions: KCTC 4220, 24 h.
Format: functional
Work on `COc1cccc(C(=O)COc2ccc(/C=C3\SC(=S)N([C@@H](Cc4ccccc4)C(=O)O)C3=O)cc2)c1` yielded an MIC of 8 µg/mL (≈ 15 µM).
`Cc1onc(-c2ccccc2)c1C(=O)N[C@@H]1C(=O)N2[C@@H]1SC(C)(C)[C@@H]2C(=O)O` [OXACILLIN] gave an MIC of 1 µg/mL (≈ 2.49 µM).
Work on `COc1cccc(C(=O)COc2ccc(/C=C3\SC(=S)N([C@@H](Cc4ccc(O)cc4)C(=O)O)C3=O)cc2)c1` yielded an MIC of 32 µg/mL (≈ 58.2 µM).
In the case of `CCn1cc(C(=O)O)c(=O)c2cc(F)c(N3CCNCC3)cc21` [NORFLOXACIN], the MIC is reported as 2 µg/mL (≈ 6.26 µM).
In the case of `O=C(COc1ccc(/C=C2\SC(=S)N([C@@H](Cc3ccc(O)cc3)C(=O)O)C2=O)cc1)c1ccc(Cl)cc1`, the MIC is reported as 16 µg/mL (≈ 28.9 µM).
Work on `COc1ccccc1C(=O)COc1ccc(/C=C2\SC(=S)N([C@@H](Cc3c[nH]c4ccccc34)C(=O)O)C2=O)cc1` yielded an MIC of 8 µg/mL (≈ 14 µM).
`O=C(COc1ccc(/C=C2\SC(=S)N([C@@H](Cc3ccccc3)C(=O)O)C2=O)cc1)c1ccccc1Br` gave an MIC of 8 µg/mL (≈ 13.7 µM).

What follows are molecules tested on Escherichia coli (assay: Antibacterial activity against Escherichia coli 1356 after 24 hrs by two-fold serial dilution method). Conditions: Escherichia coli, 1356, 24 h.
Format: functional
Molecule `COc1cccc(C(=O)COc2ccc(/C=C3\SC(=S)N([C@@H](Cc4ccccc4)C(=O)O)C3=O)cc2)c1` has an MIC of over 64 µg/mL.
`Cc1onc(-c2ccccc2)c1C(=O)N[C@@H]1C(=O)N2[C@@H]1SC(C)(C)[C@@H]2C(=O)O` [OXACILLIN] was tested, and the MIC was over 64 µg/mL.
Work on `COc1cccc(C(=O)COc2ccc(/C=C3\SC(=S)N([C@@H](Cc4ccc(O)cc4)C(=O)O)C3=O)cc2)c1` yielded an MIC of over 64 µg/mL.
In the case of `CCn1cc(C(=O)O)c(=O)c2cc(F)c(N3CCNCC3)cc21` [NORFLOXACIN], the MIC is reported as 16 µg/mL (≈ 50.1 µM).
`O=C(COc1ccc(/C=C2\SC(=S)N([C@@H](Cc3ccc(O)cc3)C(=O)O)C2=O)cc1)c1ccc(Cl)cc1` showed an MIC of over 64 µg/mL.
`COc1ccccc1C(=O)COc1ccc(/C=C2\SC(=S)N([C@@H](Cc3c[nH]c4ccccc34)C(=O)O)C2=O)cc1` gave an MIC of over 64 µg/mL.
In the case of `O=C(COc1ccc(/C=C2\SC(=S)N([C@@H](Cc3ccccc3)C(=O)O)C2=O)cc1)c1ccccc1Br`, the MIC is reported as over 64 µg/mL.

These molecules were tested on Staphylococcus aureus (assay: Antibacterial activity against methicillin-resistant Staphylococcus aureus CCARM 3506 after 24 hrs by two-fold serial dilution method). Conditions: CCARM 3506, 24 h.
Format: functional
For `COc1cccc(C(=O)COc2ccc(/C=C3\SC(=S)N([C@@H](Cc4ccccc4)C(=O)O)C3=O)cc2)c1`, the MIC was 8 µg/mL (≈ 15 µM).
With `Cc1onc(-c2ccccc2)c1C(=O)N[C@@H]1C(=O)N2[C@@H]1SC(C)(C)[C@@H]2C(=O)O` [OXACILLIN] the MIC was over 64 µg/mL.
For `COc1cccc(C(=O)COc2ccc(/C=C3\SC(=S)N([C@@H](Cc4ccc(O)cc4)C(=O)O)C3=O)cc2)c1`, the MIC was 16 µg/mL (≈ 29.1 µM).
Molecule `CCn1cc(C(=O)O)c(=O)c2cc(F)c(N3CCNCC3)cc21` [NORFLOXACIN] has an MIC of 4 µg/mL (≈ 12.5 µM).
`O=C(COc1ccc(/C=C2\SC(=S)N([C@@H](Cc3ccc(O)cc3)C(=O)O)C2=O)cc1)c1ccc(Cl)cc1` was tested, and the MIC was 16 µg/mL (≈ 28.9 µM).
Molecule `COc1ccccc1C(=O)COc1ccc(/C=C2\SC(=S)N([C@@H](Cc3c[nH]c4ccccc34)C(=O)O)C2=O)cc1` has an MIC of 8 µg/mL (≈ 14 µM).
With `O=C(COc1ccc(/C=C2\SC(=S)N([C@@H](Cc3ccccc3)C(=O)O)C2=O)cc1)c1ccccc1Br` the MIC was 8 µg/mL (≈ 13.7 µM).

These molecules were tested on Staphylococcus aureus (assay: Antibacterial activity against methicillin-resistant Staphylococcus aureus CCARM 3167 after 24 hrs by two-fold serial dilution method). Conditions: CCARM 3167, 24 h.
Format: functional
`COc1cccc(C(=O)COc2ccc(/C=C3\SC(=S)N([C@@H](Cc4ccccc4)C(=O)O)C3=O)cc2)c1` showed an MIC of 8 µg/mL (≈ 15 µM).
In the case of `Cc1onc(-c2ccccc2)c1C(=O)N[C@@H]1C(=O)N2[C@@H]1SC(C)(C)[C@@H]2C(=O)O` [OXACILLIN], the MIC is reported as over 64 µg/mL.
In the case of `COc1cccc(C(=O)COc2ccc(/C=C3\SC(=S)N([C@@H](Cc4ccc(O)cc4)C(=O)O)C3=O)cc2)c1`, the MIC is reported as 8 µg/mL (≈ 14.6 µM).
With `CCn1cc(C(=O)O)c(=O)c2cc(F)c(N3CCNCC3)cc21` [NORFLOXACIN] the MIC was 8 µg/mL (≈ 25.1 µM).
Work on `O=C(COc1ccc(/C=C2\SC(=S)N([C@@H](Cc3ccc(O)cc3)C(=O)O)C2=O)cc1)c1ccc(Cl)cc1` yielded an MIC of 8 µg/mL (≈ 14.4 µM).
`COc1ccccc1C(=O)COc1ccc(/C=C2\SC(=S)N([C@@H](Cc3c[nH]c4ccccc34)C(=O)O)C2=O)cc1` gave an MIC of 8 µg/mL (≈ 14 µM).
`O=C(COc1ccc(/C=C2\SC(=S)N([C@@H](Cc3ccccc3)C(=O)O)C2=O)cc1)c1ccccc1Br` showed an MIC of 4 µg/mL (≈ 6.87 µM).

Each molecule was assayed on Staphylococcus aureus (assay: Antibacterial activity against Staphylococcus aureus KCTC 503 after 24 hrs by two-fold serial dilution method). Conditions: KCTC 503, 24 h.
Format: functional
`COc1cccc(C(=O)COc2ccc(/C=C3\SC(=S)N([C@@H](Cc4ccccc4)C(=O)O)C3=O)cc2)c1` gave an MIC of 8 µg/mL (≈ 15 µM).
In the case of `Cc1onc(-c2ccccc2)c1C(=O)N[C@@H]1C(=O)N2[C@@H]1SC(C)(C)[C@@H]2C(=O)O` [OXACILLIN], the MIC is reported as 1 µg/mL (≈ 2.49 µM).
Molecule `COc1cccc(C(=O)COc2ccc(/C=C3\SC(=S)N([C@@H](Cc4ccc(O)cc4)C(=O)O)C3=O)cc2)c1` has an MIC of 8 µg/mL (≈ 14.6 µM).
With `CCn1cc(C(=O)O)c(=O)c2cc(F)c(N3CCNCC3)cc21` [NORFLOXACIN] the MIC was 2 µg/mL (≈ 6.26 µM).
`O=C(COc1ccc(/C=C2\SC(=S)N([C@@H](Cc3ccc(O)cc3)C(=O)O)C2=O)cc1)c1ccc(Cl)cc1` gave an MIC of 8 µg/mL (≈ 14.4 µM).
`COc1ccccc1C(=O)COc1ccc(/C=C2\SC(=S)N([C@@H](Cc3c[nH]c4ccccc34)C(=O)O)C2=O)cc1` showed an MIC of 8 µg/mL (≈ 14 µM).
Molecule `O=C(COc1ccc(/C=C2\SC(=S)N([C@@H](Cc3ccccc3)C(=O)O)C2=O)cc1)c1ccccc1Br` has an MIC of 8 µg/mL (≈ 13.7 µM).

What follows are molecules tested on Staphylococcus aureus (assay: Antibacterial activity against Staphylococcus aureus KCTC 209 after 24 hrs by two-fold serial dilution method). Conditions: KCTC 209, 24 h.
Format: functional
Molecule `COc1cccc(C(=O)COc2ccc(/C=C3\SC(=S)N([C@@H](Cc4ccccc4)C(=O)O)C3=O)cc2)c1` has an MIC of 8 µg/mL (≈ 15 µM).
`Cc1onc(-c2ccccc2)c1C(=O)N[C@@H]1C(=O)N2[C@@H]1SC(C)(C)[C@@H]2C(=O)O` [OXACILLIN] was tested, and the MIC was 1 µg/mL (≈ 2.49 µM).
For `COc1cccc(C(=O)COc2ccc(/C=C3\SC(=S)N([C@@H](Cc4ccc(O)cc4)C(=O)O)C3=O)cc2)c1`, the MIC was 8 µg/mL (≈ 14.6 µM).
With `CCn1cc(C(=O)O)c(=O)c2cc(F)c(N3CCNCC3)cc21` [NORFLOXACIN] the MIC was 2 µg/mL (≈ 6.26 µM).
`O=C(COc1ccc(/C=C2\SC(=S)N([C@@H](Cc3ccc(O)cc3)C(=O)O)C2=O)cc1)c1ccc(Cl)cc1` showed an MIC of 8 µg/mL (≈ 14.4 µM).
`COc1ccccc1C(=O)COc1ccc(/C=C2\SC(=S)N([C@@H](Cc3c[nH]c4ccccc34)C(=O)O)C2=O)cc1` gave an MIC of 8 µg/mL (≈ 14 µM).
In the case of `O=C(COc1ccc(/C=C2\SC(=S)N([C@@H](Cc3ccccc3)C(=O)O)C2=O)cc1)c1ccccc1Br`, the MIC is reported as 4 µg/mL (≈ 6.87 µM).

What follows are molecules tested on Staphylococcus aureus (assay: Antibacterial activity against quinolone-resistant Staphylococcus aureus CCARM 3505 after 24 hrs by two-fold serial dilution method). Conditions: CCARM 3505, 24 h.
Format: functional
`COc1cccc(C(=O)COc2ccc(/C=C3\SC(=S)N([C@@H](Cc4ccccc4)C(=O)O)C3=O)cc2)c1` gave an MIC of 8 µg/mL (≈ 15 µM).
`Cc1onc(-c2ccccc2)c1C(=O)N[C@@H]1C(=O)N2[C@@H]1SC(C)(C)[C@@H]2C(=O)O` [OXACILLIN] was tested, and the MIC was 1 µg/mL (≈ 2.49 µM).
With `COc1cccc(C(=O)COc2ccc(/C=C3\SC(=S)N([C@@H](Cc4ccc(O)cc4)C(=O)O)C3=O)cc2)c1` the MIC was 8 µg/mL (≈ 14.6 µM).
Molecule `CCn1cc(C(=O)O)c(=O)c2cc(F)c(N3CCNCC3)cc21` [NORFLOXACIN] has an MIC of over 64 µg/mL.
For `O=C(COc1ccc(/C=C2\SC(=S)N([C@@H](Cc3ccc(O)cc3)C(=O)O)C2=O)cc1)c1ccc(Cl)cc1`, the MIC was 8 µg/mL (≈ 14.4 µM).
`COc1ccccc1C(=O)COc1ccc(/C=C2\SC(=S)N([C@@H](Cc3c[nH]c4ccccc34)C(=O)O)C2=O)cc1` showed an MIC of 8 µg/mL (≈ 14 µM).
Work on `O=C(COc1ccc(/C=C2\SC(=S)N([C@@H](Cc3ccccc3)C(=O)O)C2=O)cc1)c1ccccc1Br` yielded an MIC of 4 µg/mL (≈ 6.87 µM).

Each molecule was assayed on Staphylococcus aureus (assay: Antibacterial activity against quinolone-resistant Staphylococcus aureus CCARM 3519 after 24 hrs by two-fold serial dilution method). Conditions: CCARM 3519, 24 h.
Format: functional
`COc1cccc(C(=O)COc2ccc(/C=C3\SC(=S)N([C@@H](Cc4ccccc4)C(=O)O)C3=O)cc2)c1` was tested, and the MIC was 8 µg/mL (≈ 15 µM).
`Cc1onc(-c2ccccc2)c1C(=O)N[C@@H]1C(=O)N2[C@@H]1SC(C)(C)[C@@H]2C(=O)O` [OXACILLIN] showed an MIC of 1 µg/mL (≈ 2.49 µM).
Molecule `COc1cccc(C(=O)COc2ccc(/C=C3\SC(=S)N([C@@H](Cc4ccc(O)cc4)C(=O)O)C3=O)cc2)c1` has an MIC of 16 µg/mL (≈ 29.1 µM).
For `CCn1cc(C(=O)O)c(=O)c2cc(F)c(N3CCNCC3)cc21` [NORFLOXACIN], the MIC was over 64 µg/mL.
`O=C(COc1ccc(/C=C2\SC(=S)N([C@@H](Cc3ccc(O)cc3)C(=O)O)C2=O)cc1)c1ccc(Cl)cc1` showed an MIC of 16 µg/mL (≈ 28.9 µM).
Molecule `COc1ccccc1C(=O)COc1ccc(/C=C2\SC(=S)N([C@@H](Cc3c[nH]c4ccccc34)C(=O)O)C2=O)cc1` has an MIC of 8 µg/mL (≈ 14 µM).
`O=C(COc1ccc(/C=C2\SC(=S)N([C@@H](Cc3ccccc3)C(=O)O)C2=O)cc1)c1ccccc1Br` was tested, and the MIC was 8 µg/mL (≈ 13.7 µM).

From ChEMBL document CHEMBL2040848, “Synthesis and bioactivity evaluation of rhodanine derivatives as potential anti-bacterial agents” (2012)
